pIC50: −log10 of the molar value.
Molecular target: T1, recombinant human GR (Homo sapiens, UniProt P04150)
T1 construct: purchased Panvera/Invitrogen P2812 (kit P2893)
T1 sequence (P04150 1-777): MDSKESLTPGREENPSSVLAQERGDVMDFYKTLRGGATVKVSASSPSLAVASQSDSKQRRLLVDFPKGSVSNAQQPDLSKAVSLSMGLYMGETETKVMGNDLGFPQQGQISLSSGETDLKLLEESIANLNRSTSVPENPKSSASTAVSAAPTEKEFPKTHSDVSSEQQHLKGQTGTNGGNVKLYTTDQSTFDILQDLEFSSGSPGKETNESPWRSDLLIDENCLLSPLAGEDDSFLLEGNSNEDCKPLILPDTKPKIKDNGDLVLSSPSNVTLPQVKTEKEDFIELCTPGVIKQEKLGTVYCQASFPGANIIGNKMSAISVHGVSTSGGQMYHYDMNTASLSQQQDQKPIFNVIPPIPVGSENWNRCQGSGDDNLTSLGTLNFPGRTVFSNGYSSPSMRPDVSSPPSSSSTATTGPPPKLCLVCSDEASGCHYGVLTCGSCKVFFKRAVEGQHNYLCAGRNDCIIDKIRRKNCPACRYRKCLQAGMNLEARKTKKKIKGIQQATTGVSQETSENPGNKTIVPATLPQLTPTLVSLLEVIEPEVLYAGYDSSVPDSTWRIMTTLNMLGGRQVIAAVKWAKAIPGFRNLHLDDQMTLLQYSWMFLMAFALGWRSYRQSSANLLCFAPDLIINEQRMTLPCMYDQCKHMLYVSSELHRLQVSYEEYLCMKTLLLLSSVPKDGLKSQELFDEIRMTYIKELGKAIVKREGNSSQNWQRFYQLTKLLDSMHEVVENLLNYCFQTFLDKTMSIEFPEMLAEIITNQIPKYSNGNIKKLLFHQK
Test: Human Glucocorticoid Receptor (GR) Assay, fluorescence polarization competition with GS Red tracer
Settings: 2 hours at room temperature, 100% control 10 μM Dexamethasone, XLfit model 205, read-out: Inhibition of GR binding, IC50
Outline: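 Fluorescence polarization competition: recombinant human GR with GS Red tracer, stabilizing peptide and DTT in potassium phosphate/sodium molybdate/EDTA buffer. 2 h in dark at room temperature, read at ex 530/em 590 nm. Controls: DMSO (0%) and 10 μM dexamethasone (100%).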

Compound: CSCCNC(=O)c1cccc(-n2ncc3c2C=C2CC[C@@H]4[C@H]([C@@H](O)C[C@@]5(C)[C@H]4CC[C@]5(OC(=O)C4CC4)C(=O)SCF)[C@@]2(C)C3)c1 [Example 10, (1R,3aS,3bS,10aR,10bS,11S,12aS)-1-{[(Fluoromethyl)sulfanyl]carbonyl}-11-hydroxy-10a,12a-dimethyl-7-(3-{[2-(methylsulfanyl)ethyl]carbamoyl}phenyl)-1,2,3,3a,3b,4,5,7,10,10a,10b,11,12,12a-tetradecahydrocyclopenta[5,6]naphtho[1,2-f]indazol-1-yl cyclopropanecarboxylate]
- pIC50: 8.82

From patent publication US20100256104A1, “NOVEL AMIDE COMPOUNDS” (ASTRAZENECA R&D, priority 2009, published 2010)
